As a reminder, the IC50 is the concentration at which inhibition is half-maximal. A low value points to greater potency in that assay.

This passage reports IC50 results from ChEMBL document CHEMBL1132211, “The role of waters in docking strategies with incremental flexibility for carbohydrate derivatives: heat-labile enterotoxin, a multivalent test case” (J Med Chem, 1999).

The nature of this experiment: Inhibitory concentration against Escherichia coli heat-labile enterotoxin (LT) binding to ganglioside GD1b was determined by ELISA assay. On the technique in general: In an ELISA, binding on a coated surface is turned into a signal by an enzyme label.

LACTOSE, ANHYDROUS came in with an IC50 of 45 µM.

Consider `OC[C@H]1O[C@@H](O[C@@H]2[C@@H](CO)O[C@](O)(CO)[C@H]2O)[C@H](O)[C@@H](O)[C@H]1O` [LACTULOSE], for which the IC50 is 15 µM.

`O=[N+]([O-])c1cccc(O[C@@H]2O[C@H](CO)[C@H](O)[C@H](O)[C@H]2O)c1`: the IC50 amounted to 0.6 µM. This IC50 lies about 25-fold lower than the previous one.

Turning to `OC[C@H]1O[C@@H](S[C@@H]2O[C@H](CO)[C@H](O)[C@H](O)[C@H]2O)[C@H](O)[C@@H](O)[C@H]1O` [THIODIGALACTOSIDE], the IC50 turned out to be 4 µM. This IC50 lies about 6.7-fold higher than the previous one.

For the molecule `O=C[C@H](O)[C@@H](O)[C@@H](O)[C@H](O)CO` [GALACTOSE], the IC50 is 57 µM.

In turn, `O=C(O)[C@H](O)[C@@H](O)[C@H](O)[C@H](O)CO[C@@H]1O[C@H](CO)[C@H](O)[C@H](O)[C@H]1O` yielded an IC50 of 7 µM.
